Reference: the supplement of paper PMC10307832

Columns and labels:
Assay in all cases: relative viability (nuclei count vs DMSO), 5 days (fraction); higher = more cells survive
Cediranib + Palbociclib = compound: COc1cc2c(Oc3ccc4[nH]c(C)cc4c3F)ncnc2cc1OCCCN1CCCC1 [Cediranib] + CC(=O)c1c(C)c2cnc(Nc3ccc(N4CCNCC4)cn3)nc2n(C2CCCC2)c1=O [Palbociclib] (partner 0.5 µM)
Method in brief: (§1)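 Relative viability is defined as nuclei in treated wells over nuclei in vehicle wells. Duplicate plates were run and medians reported. Lung cancer cell lines in 1536-well plates were dosed by pin tool one day after seeding, with one drug or with a fixed anchor-drug dose plus five library-drug doses (not always all listed) in √10 steps, and nuclei were counted after 5 days.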

Decitabine + Foretinib = compound: Nc1ncn([C@H]2C[C@H](O)[C@@H](CO)O2)c(=O)n1 [Decitabine] + COc1cc2c(Oc3ccc(NC(=O)C4(C(=O)Nc5ccc(F)cc5)CC4)cc3F)ccnc2cc1OCCCN1CCOCC1 [Foretinib] (partner 0.25 µM)
Method in brief: as §1

Cediranib + Decitabine = compound: COc1cc2c(Oc3ccc4[nH]c(C)cc4c3F)ncnc2cc1OCCCN1CCCC1 [Cediranib] + Nc1ncn([C@H]2C[C@H](O)[C@@H](CO)O2)c(=O)n1 [Decitabine] (partner 2 µM)
Method in brief: as §1

[1] = compound: O=C(C[C@H]1NCCC[C@@H]1O)Cn1cnc2cc(Br)c(Cl)cc2c1=O (racemic) [Halofuginone] + C[C@]1(O)C[C@@H](c2nc(-c3ccc4ccc(-c5ccccc5)nc4c3)c3c(N)nccn32)C1 [Linsitinib] (partner 1 µM)
Method in brief: as §1

| Cell Line | relative viability (Cediranib + Palbociclib; first compound 0.04 µM) | relative viability (Cediranib + Palbociclib; first compound 0.1265 µM) | relative viability (Cediranib + Palbociclib; first compound 0.4 µM) | relative viability (Cediranib + Palbociclib; first compound 1.265 µM) | relative viability (Cediranib + Palbociclib; first compound 4 µM) | relative viability (Decitabine + Foretinib; first compound 0.04 µM) | relative viability (Decitabine + Foretinib; first compound 0.1265 µM) | relative viability (Decitabine + Foretinib; first compound 0.4 µM) | relative viability (Decitabine + Foretinib; first compound 1.265 µM) | relative viability (Decitabine + Foretinib; first compound 4 µM) | relative viability (Cediranib + Decitabine; first compound 0.04 µM) | relative viability (Cediranib + Decitabine; first compound 0.1265 µM) | relative viability (Cediranib + Decitabine; first compound 0.4 µM) | relative viability (Cediranib + Decitabine; first compound 1.265 µM) | relative viability (Cediranib + Decitabine; first compound 4 µM) | relative viability ([1]; first compound 0.001 µM) | relative viability ([1]; first compound 0.003162 µM) | relative viability ([1]; first compound 0.01 µM) | relative viability ([1]; first compound 0.03162 µM) | relative viability ([1]; first compound 0.1 µM) |
| --- | --- | --- | --- | --- | --- | --- | --- | --- | --- | --- | --- | --- | --- | --- | --- | --- | --- | --- | --- | --- |
| NCI-H2405 | 0.532 | 0.574 | 0.516 | 0.546 | 0.514 | 0.957 | 0.918 | 0.863 | 0.628 | 0.462 | 0.68 | 0.758 | 0.71 | 0.661 | 0.793 | 0.991 | 1.05 | 1.01 | 0.906 | 0.69 |
| NCI-H3122 | 0.209 | – | 0.186 | 0.199 | 0.175 | 0.898 | 0.775 | 0.715 | 0.539 | 0.575 | 0.558 | – | 0.421 | 0.417 | 0.477 | 1.01 | 1.04 | 0.993 | 0.952 | 0.968 |
| PC-3 [JPC-3] | 0.571 | – | 0.515 | 0.559 | 0.563 | 0.833 | 0.71 | 0.588 | 0.54 | 0.472 | 0.804 | – | 0.777 | 0.737 | 0.753 | 0.981 | 0.987 | 0.911 | 1.01 | 0.941 |
| PC-14 | 0.601 | 0.627 | 0.487 | 0.439 | 0.328 | – | 0.744 | 0.411 | 0.313 | 0.282 | 0.209 | 0.245 | 0.241 | 0.309 | 0.264 | 1.09 | 0.97 | 0.884 | 0.774 | 0.332 |
